Assay results: patent US20230407243A1, “GENETIC PLATFORM TO INVESTIGATE THE FUNCTIONS OF BACTERIAL DRUG EFFLUX PUMPS” (priority 2022, published 2023)
Converted amounts (≈) assume the structure as drawn.

Legend:
[1] = tested on: EKO-35-Pore expressing the P. aeruginosa pump mexCD; assay: Checkerboard synergy (FICI), porinated strain; type: cell-based, Escherichia coli
How it was run: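 MHB II, CLSI microdilution checkerboard, colony-resuspension inoculum, solvent controls per plate. MIC = no growth at OD600. FICI summed from FIC of PAβN/NMP and antibiotic; <0.5 synergistic, >2.0 antagonistic.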

[2] = tested on: K-12 gyrB (pCA24N); assay: MIC of strains harboring ASKA plasmids; type: cell-based; settings: Escherichia coli, 0.1 mM IPTG
[3] = tested on: ΔtolC gyrB (pCA24N); type: cell-based, Escherichia coli
[4] = tested on: K-12 wcaC (pCA24N); assay: microbe, parasite or virus in culture; settings: Escherichia coli, 0.1 mM IPTG
Method: (§1) To enable comparison between efflux production in different genetic backgrounds, each efflux pump-encoding gene was also integrated into the genome of the wild-type BW25113 strain, the single gene deletion mutant from the Keio Collection, and EKO-35. Strains of interest were propagated on LB agar at 37° C. Cell inoculum was prepared using the colony resuspension method and applied to a 96-well well plate (VWR) in technical duplicate, and the minimum inhibitory concentrations were determined according to Clinical & Laboratory Standards Institute (CLSI) protocols in MHB II (Patel J. B. et al, 2015). The plates were incubated for 18 h (Multitron Shaker, Infors HT) at 37° C. with aeration at 900 rpm. The plates were equilibrated to room temperature before the OD600 nm was measured using a BioTek Synergy H1 microplate reader. For interplay profiling, blank subtracted OD600 nm values >0.1 were considered to represent growth.
(§2) To assess fitness of EKO-35 expressing wild-type copies of the genes identified to harbor nonsynonymous mutations, Inventors obtained clones from the E. coli ASKA library (Kitagawa, M. et al., 2005) with the rspA, tufA, pitA, wcaC, gyrB, and yjfC genes carried on plasmids, with gene expression under the control of an IPTG-inducible promoter. The ASKA plasmids were verified using Sanger sequencing and gene expression was induced with 0.1 mM IPTG. In the wild-type E. coli K-12 strain, the plasmids were maintained with 25 μg/mL chloramphenicol.

[5] = tested on: ΔtolC wcaC (pCA24N); assay: microbe, parasite or virus in culture
Method: as §1, §2

[6] = EKO-35 mexCD Pore, NMP + antibiotic
[7] = EKO-35 mexCD Pore, PAβN + antibiotic
[8] = strain EKO-35 mexCD Pore, NMP + antibiotic

CC[C@H]1OC(=O)[C@H](C)[C@@H](O[C@H]2C[C@@](C)(OC)[C@@H](O)[C@H](C)O2)[C@H](C)[C@@H](O[C@@H]2O[C@H](C)C[C@H](N(C)C)[C@H]2O)[C@](C)(O)C[C@@H](C)C(=O)[C@H](C)[C@@H](O)[C@]1(C)O [erythromycin]
Effect [1, 6]: Additive | FICI [1, 6]: 0.565 | Effect [1, 7]: Synergistic | FICI [1, 7]: 0.385 | MICb Alone ([1]; EKO-35 mexCD Pore, antibiotic alone (PAβN checkerboard)): 0.5 µg/mL | MICb Combined ([1]; EKO-35 mexCD Pore, antibiotic in combination with PAβN): 0.13 µg/mL | Effect [1, 8]: Additive (additive (FICI >0.5-1.0)) | FICI [1, 8]: 0.565 | MICb Alone ([1]; strain EKO-35 mexCD Pore, antibiotic alone): 2 µg/mL | MICb Combined ([1]; strain EKO-35 mexCD Pore, antibiotic in combination with NMP): 0.13 µg/mL

CO[C@@H]1[C@@H](OC(N)=O)[C@@H](O)[C@H](Oc2ccc3c(O)c(NC(=O)c4ccc(O)c(CC=C(C)C)c4)c(=O)oc3c2C)OC1(C)C [novobiocin]
MIC ([2]; Chlor + (25 μg/mL)): 100 µg/mL | MIC ([2]; Chlor −): 400 µg/mL | MIC [3]: 12.5 µg/mL (≈ 20.4 µM)

COc1cc(Cc2cnc(N)nc2N)cc(OC)c1OC [trimethoprim]
MIC ([4]; Chlor + (25 μg/mL)): 0.195 µg/mL | MIC ([4]; Chlor −): 1.56 µg/mL | MIC ([5]; Escherichia coli): 0.195 µg/mL | MIC ([5]; ΔtolC wcaC, Chlor +, 0.1 mM IPTG): 0.195 µg/mL

phenylalanine-arginine-β-naphthylamide [PAβN]
PABN MICa Alone ([1]; EKO-35 mexCD Pore, PAβN alone, one value per checkerboard): 64 µg/mL | PABN MICa Combined ([1]; EKO-35 mexCD Pore, with Ciprofloxacin): 16 µg/mL | PABN MICa Combined ([1]; EKO-35 mexCD Pore, with Erythromycin): 8 µg/mL
